ChEMBL document CHEMBL1201862, “PubChem BioAssay data set” (2004)
Calls of active or inactive are those of the source.

What was measured:
Cytochrome P450 3A4 [1] = molecular target: T1, Cytochrome P450 3A4 (Homo sapiens, UniProt P08684);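 note: CYP3A4 tested as one member of a cytochrome P450 panel screen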
Cytochrome P450 2D6 [2] = molecular target: T2, Cytochrome P450 2D6 (Homo sapiens, UniProt P10635);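 note: CYP2D6 member of a cytochrome P450 panel assay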
Cytochrome P450 1A2 = molecular target: T3, Cytochrome P450 1A2 (Homo sapiens, UniProt P05177);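 note: PubChem cytochrome P450 panel assay, CYP1A2 panel member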
T3 sequence (P05177 whole entry): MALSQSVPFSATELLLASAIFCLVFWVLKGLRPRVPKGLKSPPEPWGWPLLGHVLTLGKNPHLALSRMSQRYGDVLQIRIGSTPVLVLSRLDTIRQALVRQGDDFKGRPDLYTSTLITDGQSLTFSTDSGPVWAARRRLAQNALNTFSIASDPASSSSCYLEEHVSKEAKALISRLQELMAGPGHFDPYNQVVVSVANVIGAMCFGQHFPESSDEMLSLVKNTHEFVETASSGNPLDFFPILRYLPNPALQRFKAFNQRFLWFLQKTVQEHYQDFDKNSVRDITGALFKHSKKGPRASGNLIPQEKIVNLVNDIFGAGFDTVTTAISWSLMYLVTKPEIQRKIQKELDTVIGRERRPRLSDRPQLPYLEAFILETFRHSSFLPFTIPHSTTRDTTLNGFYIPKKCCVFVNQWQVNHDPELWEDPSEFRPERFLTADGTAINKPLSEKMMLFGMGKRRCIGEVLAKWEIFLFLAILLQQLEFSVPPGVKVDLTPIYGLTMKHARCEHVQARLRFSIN

Cytochrome P450 2C19 = Cytochrome P450 2C19 (Homo sapiens, UniProt P33261); assay: Cytochrome panel assay with activity outcomes. Panel member name: p450-cyp2c19 Compounds with AC50 equal or less than 10 uM are considered active; assay type: functional; conditions: read-out: AC50
[3] = molecular target: T4, Replicative DNA helicase DnaB (Mycobacterium tuberculosis, UniProt P9WMR3); assay: DnaB intein splicing inhibitors, dose response, biochemical, cell-free fluorescence (AID 449749); assay type: functional
T4 sequence (P9WMR3 whole entry): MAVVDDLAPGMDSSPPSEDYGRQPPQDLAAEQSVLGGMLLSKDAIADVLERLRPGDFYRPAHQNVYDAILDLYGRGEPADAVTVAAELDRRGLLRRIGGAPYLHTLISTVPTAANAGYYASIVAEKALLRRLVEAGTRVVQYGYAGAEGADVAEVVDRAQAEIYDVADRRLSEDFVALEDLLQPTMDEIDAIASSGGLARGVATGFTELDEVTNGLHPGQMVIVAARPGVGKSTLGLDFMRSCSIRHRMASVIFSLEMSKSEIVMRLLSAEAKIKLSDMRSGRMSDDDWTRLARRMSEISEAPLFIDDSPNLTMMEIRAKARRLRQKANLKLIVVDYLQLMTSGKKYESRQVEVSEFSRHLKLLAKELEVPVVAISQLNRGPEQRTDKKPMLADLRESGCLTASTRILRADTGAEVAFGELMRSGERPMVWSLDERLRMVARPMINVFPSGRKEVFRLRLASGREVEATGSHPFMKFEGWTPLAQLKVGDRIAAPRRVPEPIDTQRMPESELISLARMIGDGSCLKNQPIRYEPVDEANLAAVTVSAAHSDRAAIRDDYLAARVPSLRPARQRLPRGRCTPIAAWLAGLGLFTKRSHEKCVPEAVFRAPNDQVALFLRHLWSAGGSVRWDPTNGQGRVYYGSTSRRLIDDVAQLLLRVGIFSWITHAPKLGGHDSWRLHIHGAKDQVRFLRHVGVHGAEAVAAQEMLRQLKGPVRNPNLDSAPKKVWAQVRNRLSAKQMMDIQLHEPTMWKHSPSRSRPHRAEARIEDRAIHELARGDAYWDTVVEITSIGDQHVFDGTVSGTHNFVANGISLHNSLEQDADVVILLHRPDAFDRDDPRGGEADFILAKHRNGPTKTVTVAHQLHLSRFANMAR

[4] = molecular target: G-protein coupled receptor 55 (Homo sapiens, UniProt Q9Y2T6); assay: GPR55 antagonists, SAR follow-up, counter-screen for GPR35 antagonist project, imaging, image-based (AID 2397); assay type: functional
Protein RecA = molecular target: T5, Protein RecA (Mycobacterium tuberculosis, UniProt P9WHJ3); assay: Fluorescence Cell-Free Homogeneous Dose Retest to Identify Inhibitors of RecA-Intein Splicing Activity. [Related pubchem assays (depositor defined):AID2097, AID2223, AID489010, AID492950]; assay type: functional
T5 sequence (P9WHJ3 whole entry): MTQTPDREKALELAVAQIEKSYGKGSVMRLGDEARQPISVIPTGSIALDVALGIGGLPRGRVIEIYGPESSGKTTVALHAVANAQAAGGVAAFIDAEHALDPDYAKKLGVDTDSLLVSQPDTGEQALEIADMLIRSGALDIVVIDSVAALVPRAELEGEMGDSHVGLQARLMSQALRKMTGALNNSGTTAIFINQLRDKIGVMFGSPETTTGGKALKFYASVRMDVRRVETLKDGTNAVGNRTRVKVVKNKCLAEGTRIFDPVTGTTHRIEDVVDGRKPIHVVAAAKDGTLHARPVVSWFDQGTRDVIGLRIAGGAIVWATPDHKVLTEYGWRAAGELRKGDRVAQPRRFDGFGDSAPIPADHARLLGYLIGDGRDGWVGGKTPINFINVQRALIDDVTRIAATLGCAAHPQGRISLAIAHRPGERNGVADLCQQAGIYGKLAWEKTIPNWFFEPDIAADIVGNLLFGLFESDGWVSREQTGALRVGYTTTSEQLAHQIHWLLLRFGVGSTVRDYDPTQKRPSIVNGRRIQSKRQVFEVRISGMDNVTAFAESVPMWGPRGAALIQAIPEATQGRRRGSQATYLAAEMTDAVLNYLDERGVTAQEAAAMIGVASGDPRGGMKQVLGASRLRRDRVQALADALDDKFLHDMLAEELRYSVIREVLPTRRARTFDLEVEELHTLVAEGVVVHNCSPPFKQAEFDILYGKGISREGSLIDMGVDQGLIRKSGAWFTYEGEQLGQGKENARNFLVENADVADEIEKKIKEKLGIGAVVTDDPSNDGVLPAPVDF

Protein skinhead-1 = molecular target: T6, Protein skinhead-1 (Caenorhabditis elegans, UniProt P34707); assay type: functional
T6 sequence (P34707 whole entry): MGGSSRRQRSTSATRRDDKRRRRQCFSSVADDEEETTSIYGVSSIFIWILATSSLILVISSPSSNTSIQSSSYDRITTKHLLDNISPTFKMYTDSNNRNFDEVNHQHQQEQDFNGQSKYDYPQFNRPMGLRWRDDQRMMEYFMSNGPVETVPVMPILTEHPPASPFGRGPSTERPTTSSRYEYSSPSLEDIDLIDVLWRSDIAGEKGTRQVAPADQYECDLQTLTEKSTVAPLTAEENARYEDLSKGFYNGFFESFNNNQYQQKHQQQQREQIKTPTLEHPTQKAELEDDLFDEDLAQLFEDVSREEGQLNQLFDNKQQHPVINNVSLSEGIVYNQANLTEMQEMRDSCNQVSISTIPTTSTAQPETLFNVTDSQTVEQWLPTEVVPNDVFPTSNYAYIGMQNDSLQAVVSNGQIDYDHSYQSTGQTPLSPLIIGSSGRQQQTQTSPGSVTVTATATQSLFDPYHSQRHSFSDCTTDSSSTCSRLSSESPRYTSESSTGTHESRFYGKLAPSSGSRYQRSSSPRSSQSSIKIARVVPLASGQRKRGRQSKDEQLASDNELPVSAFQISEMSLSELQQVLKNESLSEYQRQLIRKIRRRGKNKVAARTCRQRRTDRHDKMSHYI

[5] = Intein inhibitors as potential Tuberculosis drugs, a cytotoxicity screen. [Related pubchem assays (depositor defined):AID2221, AID2223, AID434968, AID435010, AID449749, AID449750, AID489010]; assay type: functional
[6] = molecular target: UDP-galactopyranose mutase (Mycobacterium tuberculosis, UniProt P9WIQ1); assay: Inhibitors of Mycobacterium tuberculosis UDP-galactopyranose mutase (UGM) enzyme Measured in Biochemical System Using Plate Reader - 2105-02_Inhibitor_Dose_CherryPick_Activity. [Related pubchem assays (depositor defined):AID504439]
Keap1/Nrf2 = Keap1/Nrf2 (Homo sapiens, UniProt Q14145); assay: Keap1-Nrf2 protein-protein interaction inhibitors, dose response, biochemical, fluorescence polarization, cherry-picked samples (AID 588683)
INS1 = assay: beta cell apoptosis inhibitors, cytokine rescue, dose response, luminescence, retest (AID 449756); assay type: functional, cell-based; conditions: Rattus norvegicus;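 note: cell death triggered by IL-1 beta plus TNF-alpha plus IFN-gamma mixture; protective hits raise ATP signal compared with cytokine alone wells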
Cytochrome P450 2C9 = Cytochrome P450 2C9 (Homo sapiens, UniProt P11712)
Cytochrome P450 3A4 [7] = molecular target: T1, Cytochrome P450 3A4; remark: listed apart in the source
Cytochrome P450 2D6 [8] = molecular target: T2, Cytochrome P450 2D6; remark: listed apart in the source
Protein Tat = molecular target: T7, Protein Tat (Human immunodeficiency virus type 1 group M subtype B (isolate HXB2)(HIV-1), UniProt P04608); assay type: functional;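 note: tat binding to TAR RNA read out by fluorescence polarization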
T7 sequence (P04608 whole entry): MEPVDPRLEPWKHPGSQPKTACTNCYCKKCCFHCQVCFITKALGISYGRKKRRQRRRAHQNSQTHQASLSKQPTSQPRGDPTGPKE

[9] = molecular target: T8, Tyrosine-protein phosphatase non-receptor type 7 (Homo sapiens, UniProt P35236); assay: redox-dependent HePTP inhibition, mechanism study, biochemical, fluorescence (AID 2068); assay type: functional
T8 sequence (P35236 whole entry): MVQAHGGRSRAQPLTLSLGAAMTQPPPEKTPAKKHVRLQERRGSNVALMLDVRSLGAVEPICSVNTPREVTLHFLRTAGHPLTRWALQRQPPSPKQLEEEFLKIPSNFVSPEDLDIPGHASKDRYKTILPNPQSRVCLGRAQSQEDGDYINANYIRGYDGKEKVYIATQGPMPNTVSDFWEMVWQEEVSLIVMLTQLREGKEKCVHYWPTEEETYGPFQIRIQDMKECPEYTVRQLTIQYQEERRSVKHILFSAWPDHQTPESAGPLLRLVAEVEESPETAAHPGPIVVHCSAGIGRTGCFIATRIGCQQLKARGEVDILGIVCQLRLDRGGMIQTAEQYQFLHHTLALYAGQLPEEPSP

[10] = molecular target: Dual specificity protein phosphatase 3 (Homo sapiens, UniProt P51452); assay: SAR VHR1 Fluorescent Assay for In Vitro dose response studies. [Related pubchem assays (depositor defined):AID1654, AID1661, AID1878, AID1992, AID2004, AID2070, AID2085]; assay type: functional
[11] = molecular target: T9, Dual specificity protein phosphatase 6 (Rattus norvegicus, UniProt Q64346); assay: MKP-3 phosphatase inhibitors, primary screen, biochemical, rat enzyme, in vitro (AID 425)
T9 sequence (Q64346 whole entry): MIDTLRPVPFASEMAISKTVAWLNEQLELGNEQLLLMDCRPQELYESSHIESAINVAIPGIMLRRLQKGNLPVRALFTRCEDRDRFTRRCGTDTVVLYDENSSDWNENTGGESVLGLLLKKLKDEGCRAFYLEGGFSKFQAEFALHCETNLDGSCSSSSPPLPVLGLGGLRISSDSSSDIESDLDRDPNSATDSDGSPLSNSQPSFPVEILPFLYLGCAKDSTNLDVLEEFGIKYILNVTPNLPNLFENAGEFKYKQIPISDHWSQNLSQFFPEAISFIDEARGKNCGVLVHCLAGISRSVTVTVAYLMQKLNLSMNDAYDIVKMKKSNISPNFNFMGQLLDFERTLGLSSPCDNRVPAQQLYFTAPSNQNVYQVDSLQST

Bcl-2-like protein 1 = Bcl-2-like protein 1 (Homo sapiens, UniProt Q07817); assay: BCL-XL inhibitors, dose response, selectivity assay for MCL1 inhibitor project, biochemical, fluorescence polarization, 1536-well (AID 2218)
Bcl-2-like protein 10 = molecular target: T10, Bcl-2-like protein 10 (Homo sapiens, UniProt Q9HD36); assay: displacers of TR3 peptide from Bcl-B, primary screen, selectivity assay for Bfl-1 inhibitor project, biochemical, fluorescence polarization, FITC-TR3 peptide (AID 748);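 note: fluorescence polarization from a fluorescein-labelled TR3 peptide binding purified Bcl-B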
T10 sequence (Q9HD36 whole entry): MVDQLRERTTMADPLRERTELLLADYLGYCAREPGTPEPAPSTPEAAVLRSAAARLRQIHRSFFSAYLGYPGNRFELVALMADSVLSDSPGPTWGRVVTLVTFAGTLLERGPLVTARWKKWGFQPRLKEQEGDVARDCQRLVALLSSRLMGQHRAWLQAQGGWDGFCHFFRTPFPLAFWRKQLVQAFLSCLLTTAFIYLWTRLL

[12] = molecular target: Induced myeloid leukemia cell differentiation protein Mcl-1 (Homo sapiens, UniProt Q07820); assay: MCL1-BIM BH3 interaction inhibitors, dose response, biochemical, fluorescence polarization, BIM-BH3 peptide, 1536-well (AID 2217)
[13] = molecular target: Glyceraldehyde-3-phosphate dehydrogenase (Homo sapiens, UniProt P04406)
[14] = molecular target: T8, Tyrosine-protein phosphatase non-receptor type 7; assay type: functional
[15] = molecular target: T9, Dual specificity protein phosphatase 6; assay type: functional
[16] = molecular target: T9, Dual specificity protein phosphatase 6
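Throughout, for CC50: cells exposed to compound for 72 hours before luminescence readout.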

T2 sequence (P10635 whole entry): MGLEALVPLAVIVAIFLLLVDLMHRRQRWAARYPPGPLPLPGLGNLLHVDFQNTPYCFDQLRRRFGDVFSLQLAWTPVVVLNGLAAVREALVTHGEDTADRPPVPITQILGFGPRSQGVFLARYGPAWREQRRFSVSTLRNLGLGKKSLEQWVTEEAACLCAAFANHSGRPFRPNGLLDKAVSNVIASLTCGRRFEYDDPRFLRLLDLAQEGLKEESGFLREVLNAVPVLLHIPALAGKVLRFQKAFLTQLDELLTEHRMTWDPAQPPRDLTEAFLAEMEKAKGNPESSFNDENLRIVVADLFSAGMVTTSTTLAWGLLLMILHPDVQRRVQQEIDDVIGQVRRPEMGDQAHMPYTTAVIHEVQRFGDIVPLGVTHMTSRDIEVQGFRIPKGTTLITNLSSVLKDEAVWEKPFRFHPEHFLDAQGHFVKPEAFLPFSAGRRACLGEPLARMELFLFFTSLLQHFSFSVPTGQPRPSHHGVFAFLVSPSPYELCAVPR
T1 sequence (P08684 whole entry): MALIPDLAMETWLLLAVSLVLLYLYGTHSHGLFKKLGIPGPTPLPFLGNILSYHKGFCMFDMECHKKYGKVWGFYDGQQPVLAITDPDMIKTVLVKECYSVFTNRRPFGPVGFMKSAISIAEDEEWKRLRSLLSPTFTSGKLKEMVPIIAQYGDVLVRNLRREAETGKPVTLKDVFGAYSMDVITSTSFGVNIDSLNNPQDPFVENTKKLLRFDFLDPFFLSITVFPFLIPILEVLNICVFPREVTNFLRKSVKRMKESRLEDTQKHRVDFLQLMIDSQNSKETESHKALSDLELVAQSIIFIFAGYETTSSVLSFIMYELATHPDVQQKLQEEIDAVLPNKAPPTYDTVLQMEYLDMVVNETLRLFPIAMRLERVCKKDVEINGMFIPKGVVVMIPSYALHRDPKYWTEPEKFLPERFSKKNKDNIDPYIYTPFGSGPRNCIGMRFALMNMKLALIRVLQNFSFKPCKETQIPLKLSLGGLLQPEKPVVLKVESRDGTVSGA
Chain of Glyceraldehyde-3-phosphate dehydrogenase (P04406 whole entry): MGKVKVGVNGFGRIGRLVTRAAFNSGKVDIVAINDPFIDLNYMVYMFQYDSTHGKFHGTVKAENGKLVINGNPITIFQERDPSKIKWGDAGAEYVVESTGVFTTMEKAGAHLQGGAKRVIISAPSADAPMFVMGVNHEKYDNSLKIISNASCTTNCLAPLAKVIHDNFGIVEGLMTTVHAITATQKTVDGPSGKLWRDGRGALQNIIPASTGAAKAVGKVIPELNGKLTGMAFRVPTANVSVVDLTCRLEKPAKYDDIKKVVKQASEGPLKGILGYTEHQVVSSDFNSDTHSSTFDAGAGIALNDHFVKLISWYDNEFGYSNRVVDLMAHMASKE
Chain of Bcl-2-like protein 1 (Q07817 whole entry): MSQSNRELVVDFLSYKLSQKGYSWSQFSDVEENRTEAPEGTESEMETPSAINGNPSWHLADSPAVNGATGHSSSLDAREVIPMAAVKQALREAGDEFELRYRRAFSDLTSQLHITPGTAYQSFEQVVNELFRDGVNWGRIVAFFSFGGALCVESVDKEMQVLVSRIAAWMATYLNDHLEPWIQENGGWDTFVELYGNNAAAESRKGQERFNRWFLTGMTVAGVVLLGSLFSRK
Chain of G-protein coupled receptor 55 (Q9Y2T6 whole entry): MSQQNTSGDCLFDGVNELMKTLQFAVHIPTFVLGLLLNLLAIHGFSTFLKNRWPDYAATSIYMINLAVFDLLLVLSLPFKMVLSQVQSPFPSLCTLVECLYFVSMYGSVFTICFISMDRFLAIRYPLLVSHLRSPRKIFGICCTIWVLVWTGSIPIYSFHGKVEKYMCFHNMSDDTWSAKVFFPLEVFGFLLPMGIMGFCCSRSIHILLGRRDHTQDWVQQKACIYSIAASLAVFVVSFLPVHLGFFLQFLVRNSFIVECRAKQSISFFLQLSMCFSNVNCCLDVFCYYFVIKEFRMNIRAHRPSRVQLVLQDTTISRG
Chain of Dual specificity protein phosphatase 3 (P51452 whole entry): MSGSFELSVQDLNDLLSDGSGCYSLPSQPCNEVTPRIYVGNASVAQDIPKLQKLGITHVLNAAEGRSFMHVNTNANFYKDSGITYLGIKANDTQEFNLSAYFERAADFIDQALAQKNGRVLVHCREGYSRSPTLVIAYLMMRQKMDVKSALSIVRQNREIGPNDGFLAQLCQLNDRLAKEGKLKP
Chain of Keap1/Nrf2 (Q16236 whole entry): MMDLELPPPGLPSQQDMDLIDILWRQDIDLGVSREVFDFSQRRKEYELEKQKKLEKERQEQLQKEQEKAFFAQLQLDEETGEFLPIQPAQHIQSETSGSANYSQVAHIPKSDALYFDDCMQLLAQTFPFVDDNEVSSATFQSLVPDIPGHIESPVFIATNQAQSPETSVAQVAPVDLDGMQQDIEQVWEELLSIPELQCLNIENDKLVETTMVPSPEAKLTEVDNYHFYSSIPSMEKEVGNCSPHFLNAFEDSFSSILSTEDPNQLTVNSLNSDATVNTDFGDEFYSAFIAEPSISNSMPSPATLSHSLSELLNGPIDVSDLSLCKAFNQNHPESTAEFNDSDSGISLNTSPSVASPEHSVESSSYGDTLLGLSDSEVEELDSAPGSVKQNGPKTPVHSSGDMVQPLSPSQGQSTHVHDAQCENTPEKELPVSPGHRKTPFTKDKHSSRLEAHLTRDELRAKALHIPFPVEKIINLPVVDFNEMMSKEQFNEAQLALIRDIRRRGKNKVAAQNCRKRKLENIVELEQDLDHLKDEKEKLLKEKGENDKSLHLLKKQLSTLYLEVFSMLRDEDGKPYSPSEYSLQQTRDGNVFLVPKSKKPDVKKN
Chain of Keap1/Nrf2 (Q14145 whole entry): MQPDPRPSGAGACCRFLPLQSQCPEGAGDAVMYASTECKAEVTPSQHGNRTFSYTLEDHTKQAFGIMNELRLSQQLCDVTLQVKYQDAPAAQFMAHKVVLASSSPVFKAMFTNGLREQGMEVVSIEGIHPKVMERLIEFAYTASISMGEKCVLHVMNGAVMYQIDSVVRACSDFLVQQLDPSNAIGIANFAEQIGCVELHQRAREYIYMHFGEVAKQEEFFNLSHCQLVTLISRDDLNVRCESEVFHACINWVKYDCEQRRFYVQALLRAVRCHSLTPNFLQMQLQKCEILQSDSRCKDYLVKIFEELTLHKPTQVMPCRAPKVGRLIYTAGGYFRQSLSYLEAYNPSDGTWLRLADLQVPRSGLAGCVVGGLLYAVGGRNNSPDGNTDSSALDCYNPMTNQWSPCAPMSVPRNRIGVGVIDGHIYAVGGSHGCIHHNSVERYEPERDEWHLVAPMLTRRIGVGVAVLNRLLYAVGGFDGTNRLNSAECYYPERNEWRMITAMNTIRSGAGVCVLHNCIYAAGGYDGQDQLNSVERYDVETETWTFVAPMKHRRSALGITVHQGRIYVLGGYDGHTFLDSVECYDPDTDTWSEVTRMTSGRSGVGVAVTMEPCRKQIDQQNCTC
Chain of UDP-galactopyranose mutase (P9WIQ1 whole entry): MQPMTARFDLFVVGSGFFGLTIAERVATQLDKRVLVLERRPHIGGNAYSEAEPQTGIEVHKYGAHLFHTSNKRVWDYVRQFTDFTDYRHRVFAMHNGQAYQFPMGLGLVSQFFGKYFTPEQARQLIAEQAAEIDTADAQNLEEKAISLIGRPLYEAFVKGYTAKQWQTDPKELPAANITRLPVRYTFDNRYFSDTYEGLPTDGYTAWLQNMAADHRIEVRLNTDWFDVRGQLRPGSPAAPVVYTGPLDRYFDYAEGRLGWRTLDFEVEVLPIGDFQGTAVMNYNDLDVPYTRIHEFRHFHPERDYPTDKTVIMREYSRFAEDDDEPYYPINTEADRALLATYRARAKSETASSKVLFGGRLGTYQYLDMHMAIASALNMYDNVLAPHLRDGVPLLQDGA
Chain of Induced myeloid leukemia cell differentiation protein Mcl-1 (Q07820 whole entry): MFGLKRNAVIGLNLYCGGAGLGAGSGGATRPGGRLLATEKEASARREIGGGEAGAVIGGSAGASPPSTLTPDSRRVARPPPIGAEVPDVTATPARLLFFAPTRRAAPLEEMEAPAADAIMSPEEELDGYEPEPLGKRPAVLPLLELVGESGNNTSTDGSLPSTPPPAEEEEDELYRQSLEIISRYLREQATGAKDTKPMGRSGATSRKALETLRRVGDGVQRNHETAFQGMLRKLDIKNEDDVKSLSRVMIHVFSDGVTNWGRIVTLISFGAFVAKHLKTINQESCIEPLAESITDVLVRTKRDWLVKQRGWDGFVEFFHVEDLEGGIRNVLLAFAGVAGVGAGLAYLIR
Chain of Cytochrome P450 2C19 (P33261 whole entry): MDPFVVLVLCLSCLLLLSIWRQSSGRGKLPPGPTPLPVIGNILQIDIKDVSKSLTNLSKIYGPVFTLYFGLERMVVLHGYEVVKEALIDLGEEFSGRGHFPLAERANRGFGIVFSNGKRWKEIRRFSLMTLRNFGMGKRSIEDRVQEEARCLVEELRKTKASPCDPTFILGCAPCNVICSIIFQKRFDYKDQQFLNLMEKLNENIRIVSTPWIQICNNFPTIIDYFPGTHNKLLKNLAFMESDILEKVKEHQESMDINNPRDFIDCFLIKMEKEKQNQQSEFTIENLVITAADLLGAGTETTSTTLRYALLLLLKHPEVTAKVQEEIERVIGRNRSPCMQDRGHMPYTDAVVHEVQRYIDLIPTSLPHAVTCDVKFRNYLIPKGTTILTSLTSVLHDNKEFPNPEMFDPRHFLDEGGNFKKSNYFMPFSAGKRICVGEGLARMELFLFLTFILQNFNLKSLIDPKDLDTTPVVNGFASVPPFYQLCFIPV

Compound: CC(C)(C)c1ccc(-c2nnc(SCC(=O)c3ccc4c(c3)OCCO4)o2)cc1
- AC50 (Cytochrome P450 3A4 [1]): 39.8 µM (inconclusive)
- AC50 (Cytochrome P450 2D6 [2]): inconclusive
- AC50 (Cytochrome P450 1A2): 2.24 µM (inconclusive)
- AC50 (Cytochrome P450 2C19): 3.98 µM (inconclusive)

Compound: O=C(CCCN1C(=O)/C(=C/c2cccs2)SC1=S)Nc1ccc(O)cc1
- AC50 [3]: 2.11 µM (active)
- IC50 [4]: 30.5 µM (inactive)
- EC50 (Protein RecA): 3.25 µM (active)
- IC50 (Protein skinhead-1): > 100 µM (inactive)
- CC50 [5]: 28.5 µM (active)

Compound: COCCNC(=O)Cn1cc(C=C2C(=O)NC(=O)NC2=O)c2ccccc21
- AC50 [6]: 46.3 µM (active)

Compound: Cc1ccc(S(=O)(=O)Nc2ccc(O)c3ccccc23)c(C)c1
- AC50 [3]: 0.132 µM (active)
- AC50 (Keap1/Nrf2): > 52 µM (inactive)
- EC50 (Protein RecA): 0.0702 µM (active)
- AC50 (INS1): 5.61 µM (active)

Compound: COC(=O)C1Cc2c([nH]c3ccccc23)CN1 (stereo not drawn)
- AC50 (Cytochrome P450 2C9): 25.1 µM (inconclusive)
- AC50 (Cytochrome P450 3A4 [7]): inconclusive
- AC50 (Cytochrome P450 2D6 [8]): 14.1 µM (inconclusive)

Compound: c1ccc(CSc2nnc(-c3ccco3)c(-c3ccco3)n2)cc1
- IC50 (Protein Tat): 4.04 µM (inconclusive)
- IC50 [9]: 0.284 µM (active)
- IC50 [10]: 7.06 µM (active)
- IC50 [11]: > 10 µM (not active)
- IC50 (Bcl-2-like protein 1): > 109 µM (not active)
- IC50 (Bcl-2-like protein 10): 5.55 µM (active)
- IC50 [12]: 2.92 µM (active)
- IC50 [13]: > 100 µM (not active)
- IC50 [14]: 13.3 µM (active)
- IC50 [15]: 24.2 µM (active)
- IC50 [16]: 23.9 µM (active)
